Paper PMC10009108, “Design, synthesis and screening of indole acetic acid-based tri-azo moieties as antioxidants, anti-microbial and cytotoxic agents” (Frontiers in Pharmacology, 2023)
Values after ≈ are worked out from the molar mass of the structure shown.

Legend:
MRSA [1] = test: Antibacterial assay, resistant strains; assay type: cell-based, Staphylococcus aureus; settings: 25 μg/mL; resistant strain
[2] = system: Fusarium solani (FCBP-0291); test: Antifungal disc diffusion assay; assay type: cell-based; parameters: key to Zone of inhibition, F. solani: --- = no anti-fungal activity
Method: (§1) The antifungal response to these chemical moieties was evaluated through a procedure designated by ([Zahra et al., 2017]). Amphotericin B (4 mg/mL DMSO) is used as + ve control and DMSO as-ve one (5 μL/disc). Sterile SDA-coated plates were used, on which 100 µL of suspension of spores for each strain (previously reaped-in-Tween-20 solution) was spread. Discs of sterile filter paper containing 5 µL of sample solution (4 mg/mL DMSO) were kept on plates and incubated for 2 days at 28°C. Zones of inhibition were recorded.
(§2) The Synthetic compound library was subjected to an antifungal assay using five different strains of Fungai, i.e., Fusarium solani (FCBP-0291), Aspergillus fumigatus (FCBP-66), Aspergillus flavus (FCBP-0064), Aspergillus niger (FCBP-0198) and Mucor species (FCBP-0300). Amphotericin B was the standard drug used. […] The outcomes are concise in Table 5.

resistant S. aureus = test: Antibacterial assay, resistant strains; assay type: cell-based, Staphylococcus aureus; parameters: key to Antibacterial activity, resistant S. aureus: Activity: Positive = have anti-bacterial activity; --- = no anti-bacterial activity; settings: 25 μg/mL; resistant strain
From the text: (§3) The micro broth dilution method was used to establish the antibacterial potential of test samples against Staphylococcus aureus (ATCC-6538), Bacillus subtilis (ATCC-6633), Escherichia coli (ATCC-25922), Klebsiella pneumoniae (ATCC-1705), and Pseudomonas aeruginosa (ATCC-15442) and for the resistant strains of MRSA Staphylococcus aureus, P. aeruginosa and Escherichia coli. The procedure used is described by ([Sarker et al., 2007]). Bacterial inoculum was formed under aseptic conditions keeping the density near 5 × 10^4 CFU/mL in pre-autoclaved nutrient broth. Test samples of an aliquot of 5 µL were shifted to labeled wells of 96 well plates, and after that addition of 195 µL of nutrient broth; was accomplished. After that, a 2-fold serial dilution of every sample was arranged to get final concentrations of 12.5 μg/mL. Then, with the help of a micropipette, 195 µL of bacterial culture of respective strains was poured into each well; further advancement was incubating of plates for 30 min at the temperature of 37°C. […] Incubation of plates was again carried out at 37°C for 1 day, absorbance was noted, and net change in turbidity was the difference between two values of absorbance.
(§4) Schiff base tri-azo compounds were investigated for antibacterial potential. […] 6.25 μg/mL for 5b and 5g, and the least, Table 4 3.12 μg/mL was for 5f. […] Substituents with electron-withdrawing attributes, e.g., -NO2, -Cl, -OH on the aromatic ring, assert a great impact on the antibacterial activity of synthetic compounds. It is also observed that an increase in the number of -OH groups tend to enhance the activity ([Hosamani and Shingalapur, 2011]). Due to the difference in cell-wall composition of Gram + ve and -ve bacteria, different compounds show different features towards the same micro-organism ([Goszczyn’ska et al., 2015]).

[3] = system: Mucor species (FCBP-0300); test: Antifungal disc diffusion assay; assay type: cell-based; parameters: key to Zone of inhibition, Mucor: --- = no anti-fungal activity; settings: 20 μg/disc
Method: as §1, §2

[4] = system: Escherichia coli (ATCC-25922); test: Antibacterial assay, micro broth dilution; assay type: cell-based; parameters: key: Active = Bacterial activity; --- = no activity; settings: 25 μg/mL
resistant E.coli = test: Antibacterial assay, resistant strains; assay type: cell-based, Escherichia coli; parameters: key to Antibacterial activity, resistant E.coli: Activity: Positive = have anti-bacterial activity; --- = no anti-bacterial activity; settings: 25 μg/mL; resistant strain
From the text: as §3, §4

[5] = system: Aspergillus fumigatus (FCBP-66); test: Antifungal disc diffusion assay; assay type: cell-based; parameters: key to Zone of inhibition, A. fumigatus: --- = no anti-fungal activity; settings: 20 μg/disc
Method: as §1, §2

[6] = system: Streptomyces 85 E strains; test: Protein kinase inhibition assay; assay type: cell-based; parameters: key to Bald zone: Active = Bacterial activity; --- = no activity; settings: Sample Concentration = 20 μg/mL; Surfactin B 20 μg/mL
[7] = system: Pseudomonas aeruginosa (ATCC-15442); test: Antibacterial assay, micro broth dilution; assay type: cell-based; parameters: key: Active = Bacterial activity; --- = no activity; settings: 25 μg/mL
MRSA [8] = test: Antibacterial assay, resistant strains; assay type: cell-based; settings: Staphylococcus aureus, resistant strain
From the text: as §3, §4

resistant P. aeruginosa = test: Antibacterial assay, resistant strains; assay type: cell-based; parameters: key to Antibacterial activity, resistant P. aeruginosa: Activity: Positive = have anti-bacterial activity; --- = no anti-bacterial activity; settings: 25 μg/mL; resistant strain
From the text: as §3, §4

[9] = system: Aspergillus flavus (FCBP-0064); test: Antifungal disc diffusion assay; assay type: cell-based; parameters: key to Zone of inhibition, A. flavus: --- = no anti-fungal activity; settings: 20 μg/disc
Method: as §1, §2

[10] = system: Klebsiella pneumoniae (ATCC-1705); test: Antibacterial assay, micro broth dilution; assay type: cell-based; parameters: key: Active = Bacterial activity; --- = no activity; settings: 25 μg/mL
[11] = system: Aspergillus niger (FCBP-0198); test: Antifungal disc diffusion assay; assay type: cell-based; parameters: key to Zone of inhibition, A. niger: --- = no anti-fungal activity; settings: 20 μg/disc
Method: as §1, §2

in vivo = test: in vivo
Method: The cytotoxic evaluation was accomplished using the decorum designed by ([Khan et al., 2011]). To a plate of 96 wells, artificial seawater and nauplii were added. Test samples were taken in wells (40, 20, 10, 5 μg/mL) after making up the final volume with seawater, the plates were left uncovered under the lamp, and after 24 h, the number of surviving larvae was calculated. For samples having ≥50% mortality, the median lethal conc was calculated using the table curve software, Doxorubicin was used as + ve control, and DMSO was the -ve. The percentage of killed organisms was found using the formula. Percentage Mortality=No of dead shrimps÷Total Number of Shrimps×100
The results of all the experiments were articulated as mean ± SD. Each test was performed in triplicate. TAC assay was analyzed by one-way analysis of variance (ANOVA) following DUNCAN’S test using the statistical package for social sciences 18 and p < 0.05 was considered as significant where appropriate. For samples having ≥50% mortality, the median lethal concentration (LC50) was calculated using the table curve software.
This evaluation test forms the basis for the bioactive scanning of compounds for their potential as anti-cancer moieties, to be investigated on a large scale ([Amanullah et al., 2012]). […] Similarities between Artemia salina and mammalian cells have been reported due to DNA-dependent RNA polymerases ([Birndorf et al., 1975]). These Schiff bases were investigated for their cytotoxic potential. […] Doxorubicin was used as the positive control.

SMILES	MIC (MRSA [8])	Antibacterial activity, MRSA: Activity (MRSA [1])	Zone of inhibition, F. solani ([2]; 20 μg/disc)	Antibacterial activity, resistant S. aureus: Activity (resistant S. aureus)	Zone of inhibition, Mucor [3]	Antibacterial activity, E. coli: Activity [4]	Antibacterial activity, resistant E.coli: Activity (resistant E.coli)	Zone of inhibition, A. fumigatus [5]	Bald zone [6]	Clear zone [6]	Antibacterial activity, Pseudomonas aeruginosa: Activity [7]	Antibacterial activity, resistant P. aeruginosa: Activity (resistant P. aeruginosa)	Zone of inhibition, A. flavus [9]	Antibacterial activity, Klebsiella pneumoniae: Activity [10]	Zone of inhibition, A. niger [11]	LC50 at 24 h (in vivo)	antifungal activity against Fusarium solani (in words) [2]	zone of inhibition at 20 µg/disc ([2]; Fusarium solani, 20 μg/disc, read-out: Zone of inhibition, F. solani)
Oc1ccc(C=Nn2c(Cc3c[nH]c4ccccc34)n[nH]c2=S)cc1 [Compound 5e]	12.5 µg/mL (≈ 35.8 µM)	Active	6 mm	---	---	Active	---	---	---		Active	---	---	Active	---	14.1 µg/mL (≈ 40.5 µM)	active	> 6 mm
O=[N+]([O-])c1ccc(C=Nn2c(Cc3c[nH]c4ccccc34)n[nH]c2=S)cc1 [Compound 5d]	12.5 µg/mL (≈ 33 µM)	Active	---	---	---	Active	---	---	---		---	---	---	Active	---	5.7 µg/mL (≈ 15.1 µM)		
COc1cccc(C=Nn2c(Cc3c[nH]c4ccccc34)n[nH]c2=S)c1 [Compound 5b]	12.5 µg/mL (≈ 34.4 µM)	Active	---	---	---	---	---	---	10.5 mm		Active	---	---	Active	---	14.1 µg/mL (≈ 38.9 µM)		

Continued, in another order:

MIC (MRSA [8])	SMILES	Antibacterial activity, MRSA: Activity (MRSA [1])	Zone of inhibition, F. solani ([2]; 20 μg/disc)	Antibacterial activity, resistant S. aureus: Activity (resistant S. aureus)	Zone of inhibition, Mucor [3]	Antibacterial activity, E. coli: Activity [4]	Antibacterial activity, resistant E.coli: Activity (resistant E.coli)	Zone of inhibition, A. fumigatus [5]	Bald zone [6]	Clear zone [6]	Antibacterial activity, Pseudomonas aeruginosa: Activity [7]	Antibacterial activity, resistant P. aeruginosa: Activity (resistant P. aeruginosa)	Zone of inhibition, A. flavus [9]	Antibacterial activity, Klebsiella pneumoniae: Activity [10]	Zone of inhibition, A. niger [11]	LC50 at 24 h (in vivo)	antifungal activity against Fusarium solani (in words) [2]	zone of inhibition at 20 µg/disc ([2]; Fusarium solani, 20 μg/disc, read-out: Zone of inhibition, F. solani)
12.5 µg/mL (≈ 29.5 µM)	COc1cc(C=Nn2c(Cc3c[nH]c4ccccc34)n[nH]c2=S)cc(OC)c1OC [Compound 5g]	Active	---	---	---	---	---	---	7.5 mm	6 mm	---	---	---	Active	---	18.2 µg/mL (≈ 42.9 µM)		
12.5 µg/mL (≈ 35.8 µM)	Oc1cccc(C=Nn2c(Cc3c[nH]c4ccccc34)n[nH]c2=S)c1 [Compound 5a]	Active	---		---			---	9 mm		Active		---	Active	---	11.2 µg/mL (≈ 31.9 µM)		
12.5 µg/mL (≈ 34 µM)	S=c1[nH]nc(Cc2c[nH]c3ccccc23)n1N=Cc1cccc(Cl)c1 [Compound 5f]	Active	---	---	---	---	---	---	---		---	---	---	Active	---	5.7 µg/mL (≈ 15.5 µM)		
12.5 µg/mL (≈ 34 µM)	S=c1[nH]nc(Cc2c[nH]c3ccccc23)n1N=Cc1ccc(Cl)cc1 [Compound 5c]	Active	---	---	---	Active	---	---	---		---	---	---	Active	---	5.7 µg/mL (≈ 15.5 µM)		
